Measurements published in patent US20250034216A1, “STEREOSELECTIVE COVALENT LIGANDS FOR ONCOGENIC AND IMMUNOLOGICAL PROTEINS” (The Scripps Research Institute, priority 2021, published 2025).

How the values were obtained:
[1] = system: 20S core proteasomal complex; test: SEC-MS elution profile; format: cell-based, human; conditions: 22Rv1 cells, 20 μM, 3 h
Procedure: Sample preparation: Cells (adherent: 15 cm dishes, suspension: 2 million cells/mL) were treated with electrophilic probes in situ for indicated times and concentrations (elaborated fragments: 20 μM, 3 h), washed with ice-cold PBS, and flash frozen in liquid nitrogen. Cell pellets were lysed by sonication (8 pulses, 40% power) in 600 μL ice-cold PBS supplemented with cOmplete protease inhibitors (1 tablet/10 mL of PBS), ultracentrifuged for 20 min at 100,000 g, then normalized to a standardized concentration (typically 1.5 to 2.5 mg/mL). Clarified lysate was injected into a Superdex 200 Increase 10/300 GL column attached to an AKTA pure FPLC system. Proteins were fractionated using an isocratic gradient (PBS) running at 0.5 mL/min into 5 fractions 2 mL wide, beginning at 8 mL and ending at 18 mL. Eluate was collected into 15 mL tubes containing 12 mL of acetone at 4C. […]
Data processing: Fractional distributions for each peptide-spectra match with a total TMT reporter ion intensity were calculated by dividing the reporter ion intensity for each TMT channel by the summed intensity across the 5 TMT channels corresponding to a single treatment condition (Equation 1). […] Euclidean distances (SE shift scores, Equation 2) were calculated using the average elution profile for each protein across replicates, combined by treatment condition and cell line. […]

SF3B1 C1111 = target: T1, SF3B1 C1111 (Homo sapiens, UniProt O75533+Q7RTV0); test: Parallel reaction monitoring of IA-DTB labeled SF3B1 peptides; format: binding; conditions: 22Rv1 cells
T1 construct: Cysteine engagement data from 22Rv1 cells treated; endogenous in cells; host or cells: 22Rv1
Procedure: Dry peptide samples were reconstituted in a water/acetonitrile (85:15) mixture containing 0.1% formic acid (100 μl) and 15 μl was injected on to an EASY-Spray C18 loading column (5 μm particle size, 100 μm×2 cm; Fisher Scientific, DX164564) and resolved on a custom analytical column (2 μM particle size, 75 μm×15 cm) using a Dionex Ultimate 3000 nano-LC (Thermo Fisher Scientific). Peptides were separated over a 60-min gradient of 15 to 33% acetonitrile (0.1% formic acid) and analyzed on a Q-Exactive instrument (Thermo Fisher Scientific) using a parallel reaction monitoring method targeting the SF3B1 peptide containing C1111 (amino acids 1110-1149, missed tryptic, +3 charge state). Selected precursor ions were isolated and fragmented by high-energy collision dissociation and fragments were detected in the Orbitrap at 17,500 resolution.
Raw data files were uploaded analyzed in Skyline (v.21.1.0.278) to determine the abundance of each peptide in vehicle-treated samples relative to inhibitor-treated samples. Peptide quantification was performed by calculating the sum of the peak areas corresponding to six fragment ions from each peptide. The peptides and fragment ions were preselected from in-house reference spectral libraries acquired in data-dependent acquisition mode to identify authentic spectra for each peptide.

[2] = system: SF3B1 interacting proteins; test: SF3B1 co-immunoprecipitation-MS; format: cell-based, human; conditions: HEK293T cells, 5 μM WX-02-23 or 10 nM pladienolide B, 3 h
Procedure: HEK293T cells were treated in situ with DMSO, 5 μM of WX-02-23/WX-02-43, or 10 nM pladienolide B for 3 hours. Cells were harvested, washed with ice-cold PBS, and lysed in ColP lysis buffer (0.5% NP-40, 100 mM EPPS, 150 mM NaCl, cOmplete protease inhibitor). Lysates centrifuged at 16,000 g for 3 minutes, normalized to 2.0 mg/mL and 500 μL of each lysate was aliquoted to a clean eppendorf tube.
Lysates were incubated with 5 μL of anti-IgG or anti-SF3B1 (CST) for 2 hours at 4 C, followed by 1 hour with 25 μL of protein-A agarose beads. Bead were washed twice with ColP lysis buffer, and then twice with 100 mM EPPS, followed by elution with 8 M urea in EPPS at 65 C for 10 min. […] Samples were then trypsinized at 37 C overnight (2 ug of trypsin per sample), then TMT labeled and desalted.

T1 sequence (O75533 whole entry): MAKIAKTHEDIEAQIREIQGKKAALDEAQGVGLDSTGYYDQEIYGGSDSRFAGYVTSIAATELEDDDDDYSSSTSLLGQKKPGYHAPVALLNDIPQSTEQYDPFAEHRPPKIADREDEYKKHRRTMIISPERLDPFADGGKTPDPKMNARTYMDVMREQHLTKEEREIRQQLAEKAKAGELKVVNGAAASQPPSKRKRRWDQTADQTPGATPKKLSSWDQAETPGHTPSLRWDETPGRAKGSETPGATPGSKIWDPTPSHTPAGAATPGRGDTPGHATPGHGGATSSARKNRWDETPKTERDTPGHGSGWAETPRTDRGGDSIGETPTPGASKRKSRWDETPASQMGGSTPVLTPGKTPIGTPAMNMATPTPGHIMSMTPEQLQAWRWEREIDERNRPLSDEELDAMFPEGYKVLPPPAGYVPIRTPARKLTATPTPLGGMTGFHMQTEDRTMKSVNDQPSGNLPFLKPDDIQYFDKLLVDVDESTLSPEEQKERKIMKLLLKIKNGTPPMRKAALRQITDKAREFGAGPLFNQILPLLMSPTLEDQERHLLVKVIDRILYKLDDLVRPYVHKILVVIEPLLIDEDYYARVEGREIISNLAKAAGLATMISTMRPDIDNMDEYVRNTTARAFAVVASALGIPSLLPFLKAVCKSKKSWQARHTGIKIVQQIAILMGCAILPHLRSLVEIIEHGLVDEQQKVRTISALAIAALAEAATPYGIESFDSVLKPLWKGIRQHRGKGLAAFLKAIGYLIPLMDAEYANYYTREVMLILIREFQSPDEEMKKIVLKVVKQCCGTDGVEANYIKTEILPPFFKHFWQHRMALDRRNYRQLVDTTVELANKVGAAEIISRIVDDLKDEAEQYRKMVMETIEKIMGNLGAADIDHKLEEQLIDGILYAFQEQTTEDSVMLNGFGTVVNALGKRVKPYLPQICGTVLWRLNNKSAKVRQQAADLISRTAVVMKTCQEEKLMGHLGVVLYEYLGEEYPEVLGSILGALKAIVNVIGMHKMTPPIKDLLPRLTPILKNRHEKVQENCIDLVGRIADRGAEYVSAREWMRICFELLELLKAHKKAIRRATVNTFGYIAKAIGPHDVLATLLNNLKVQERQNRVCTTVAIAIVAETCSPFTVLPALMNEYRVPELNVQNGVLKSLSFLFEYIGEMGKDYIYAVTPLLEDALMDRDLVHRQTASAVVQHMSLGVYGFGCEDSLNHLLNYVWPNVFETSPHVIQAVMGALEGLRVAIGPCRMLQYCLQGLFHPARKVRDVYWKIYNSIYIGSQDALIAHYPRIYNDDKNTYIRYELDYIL
T1 sequence (Q7RTV0 whole entry): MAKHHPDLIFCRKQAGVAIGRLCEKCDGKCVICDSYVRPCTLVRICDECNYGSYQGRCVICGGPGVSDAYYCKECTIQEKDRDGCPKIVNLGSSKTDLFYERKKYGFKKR
T1 sequence (Q15393 whole entry partner): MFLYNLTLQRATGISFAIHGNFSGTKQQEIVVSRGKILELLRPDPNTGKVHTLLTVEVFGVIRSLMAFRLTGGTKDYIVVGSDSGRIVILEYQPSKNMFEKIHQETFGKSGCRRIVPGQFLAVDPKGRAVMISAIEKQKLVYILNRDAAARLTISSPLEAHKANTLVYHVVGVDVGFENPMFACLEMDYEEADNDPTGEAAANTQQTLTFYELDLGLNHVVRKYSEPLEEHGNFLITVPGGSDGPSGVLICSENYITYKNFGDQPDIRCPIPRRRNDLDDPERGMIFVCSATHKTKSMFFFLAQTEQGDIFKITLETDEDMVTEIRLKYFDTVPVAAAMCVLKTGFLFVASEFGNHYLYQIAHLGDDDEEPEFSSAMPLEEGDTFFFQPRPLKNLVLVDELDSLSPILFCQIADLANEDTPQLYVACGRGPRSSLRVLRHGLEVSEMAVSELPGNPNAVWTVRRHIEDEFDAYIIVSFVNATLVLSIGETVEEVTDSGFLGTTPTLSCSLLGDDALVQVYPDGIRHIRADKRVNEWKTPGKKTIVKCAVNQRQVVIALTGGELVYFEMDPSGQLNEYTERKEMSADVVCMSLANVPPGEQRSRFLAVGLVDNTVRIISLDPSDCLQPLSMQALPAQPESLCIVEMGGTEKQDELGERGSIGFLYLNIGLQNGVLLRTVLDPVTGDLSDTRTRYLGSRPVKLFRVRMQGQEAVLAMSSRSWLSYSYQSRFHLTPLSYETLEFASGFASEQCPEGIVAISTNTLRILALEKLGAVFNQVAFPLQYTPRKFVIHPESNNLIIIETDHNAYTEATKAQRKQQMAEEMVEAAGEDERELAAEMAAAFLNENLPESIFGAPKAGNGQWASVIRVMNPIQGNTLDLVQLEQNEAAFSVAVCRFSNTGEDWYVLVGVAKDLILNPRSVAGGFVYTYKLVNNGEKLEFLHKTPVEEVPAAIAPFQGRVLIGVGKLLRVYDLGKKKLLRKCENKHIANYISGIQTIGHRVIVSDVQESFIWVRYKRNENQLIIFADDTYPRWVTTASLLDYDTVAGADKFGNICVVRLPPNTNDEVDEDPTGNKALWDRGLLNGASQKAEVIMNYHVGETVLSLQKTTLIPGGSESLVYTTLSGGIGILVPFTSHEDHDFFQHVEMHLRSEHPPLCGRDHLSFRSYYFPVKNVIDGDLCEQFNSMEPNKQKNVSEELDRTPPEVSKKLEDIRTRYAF
T1 sequence (Q9BWJ5 whole entry partner): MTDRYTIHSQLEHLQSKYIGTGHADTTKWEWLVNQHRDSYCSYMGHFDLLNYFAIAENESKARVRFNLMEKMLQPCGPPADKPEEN

SMILES: C=CC(=O)N1C[C@H](c2ccc(Br)cc2)[C@@H]1C(=O)Nc1cccc2cccnc12 [MY-1B, (2R,3S)-1-acryloyl-3-(4-bromophenyl)-N-(quinolin-8-yl)azetidine-2-carboxamide]
- SEC migration of 20S core proteasomal complex subunits [1]: unaffected

SMILES: C=CC(=O)N1[C@H](c2ccc3c(c2)OCO3)c2[nH]c3ccccc3c2C[C@H]1C(=O)N1CCOCC1 [WX-02-23, 1-((1R,3S)-1-(benzo[d][1,3]dioxol-S-yl)-3-(morpholine-4-carbonyl)-1,3,4,9-tetrahydro-2H-pyrido [3,4-b]indol-2-yl)prop-2-en-1-one]
- IA-DTB labeling of other cysteines in SF3B1 (SF3B1 C1111): did not affect other cysteines in SF3B1
- IA-DTB reaction with SF3B1 C1111 (SF3B1 C1111; 20 μM, 24 h): stereoselectively blocked
- SF3B1 interactions (DDX42 association) [2]: much greater extent
